Reference: the OligoGym collection
HELM strings list units from the 5' end as sugar, base in round brackets, then linkage (d deoxyribose, r ribose, m 2'-O-methyl, p phosphodiester). Strings are as the collection lists them; they lack the last nucleoside at the 3' end of the tested compound. [moe] = 2'-O-(2-methoxyethyl) (MOE); [sp] = phosphorothioate linkage; [m5C] = 5-methylcytosine

target: PRNP; assay: mouse, dose not given; settings: ASO

Substance	3 h FOB score [score 0-7]
RNA1{[moe]([m5C])[sp].[moe](T)p.[moe]([m5C])p.[moe](T)p.[moe](A)[sp].d(T)[sp].d(G)[sp].d(T)[sp].d(T)[sp].d(T)[sp].d(T)[sp].d([m5C])[sp].d([m5C])[sp].d(A)[sp].d(G)[sp].[moe](T)p.[moe](G)p.[moe]([m5C])[sp].[moe]([m5C])}$$$$ (last 3' nucleoside missing)	1
RNA1{[moe](T)[sp].[moe](G)p.[moe](G)p.[moe]([m5C])p.[moe](A)[sp].d([m5C])[sp].d(T)[sp].d(T)[sp].d(T)[sp].d([m5C])[sp].d(T)[sp].d(T)[sp].d(T)[sp].d(T)[sp].d(T)[sp].[moe](A)p.[moe](T)p.[moe](T)[sp].[moe](T)}$$$$ (last 3' nucleoside missing)	0
RNA1{[moe](T)[sp].[moe](A)p.[moe](T)p.[moe](G)p.[moe](T)p.d(T)[sp].d(T)[sp].d(T)[sp].d([m5C])[sp].d([m5C])[sp].d(A)[sp].d(G)[sp].d(T)[sp].d(G)[sp].[moe]([m5C])p.[moe]([m5C])p.[moe]([m5C])[sp].[moe](A)}$$$$ (last 3' nucleoside missing)	5.25
RNA1{[moe](T)[sp].[moe]([m5C])p.[moe]([m5C])p.[moe](A)p.[moe](T)[sp].d(T)[sp].d(T)[sp].d(T)[sp].d([m5C])[sp].d(T)[sp].d(G)[sp].d(T)[sp].d(G)[sp].d([m5C])[sp].d(T)[sp].[moe](T)p.[moe](T)p.[moe](T)[sp].[moe]([m5C])}$$$$ (last 3' nucleoside missing)	3.75
RNA1{[moe](T)[sp].[moe]([m5C])p.[moe](A)p.[moe](T)p.[moe](A)[sp].d(T)[sp].d(T)[sp].d(T)[sp].d([m5C])[sp].d(T)[sp].d(G)[sp].d(T)[sp].d([m5C])[sp].d(A)[sp].d(T)[sp].[moe]([m5C])p.[moe](T)p.[moe]([m5C])[sp].[moe]([m5C])}$$$$ (last 3' nucleoside missing)	3
RNA1{[moe](A)[sp].[moe]([m5C])p.[moe]([m5C])p.[moe](A)p.[moe](T)[sp].d(A)[sp].d(T)[sp].d(A)[sp].d([m5C])[sp].d([m5C])[sp].d(A)[sp].d(T)[sp].d(G)[sp].d(T)[sp].d(A)[sp].[moe]([m5C])p.[moe](A)p.[moe](G)[sp].[moe](T)}$$$$ (last 3' nucleoside missing)	4.75
RNA1{[moe](A)[sp].[moe](G)p.[moe](T)p.[moe](A)p.[moe](T)[sp].d([m5C])[sp].d(A)[sp].d(T)[sp].d(G)[sp].d(T)[sp].d(G)[sp].d(G)[sp].d([m5C])[sp].d([m5C])[sp].d(T)[sp].[moe]([m5C])p.[moe]([m5C])p.[moe](T)[sp].[moe](A)}$$$$ (last 3' nucleoside missing)	5.75
RNA1{[moe](G)[sp].[moe](T)p.[moe]([m5C])p.[moe](A)p.[moe](G)p.d(T)[sp].d(T)[sp].d(T)[sp].d(T)[sp].d(T)[sp].d([m5C])[sp].d([m5C])[sp].d([m5C])[sp].d([m5C])[sp].[moe](A)[sp].[moe]([m5C])p.[moe](A)p.[moe](T)}$$$$ (last 3' nucleoside missing)	0
RNA1{[moe](G)[sp].[moe]([m5C])p.[moe](T)p.[moe](T)p.[moe](A)p.[moe]([m5C])p.d(T)[sp].d([m5C])[sp].d(G)[sp].d(G)[sp].d([m5C])[sp].d(T)[sp].d(T)[sp].d(G)[sp].d(T)[sp].d(T)[sp].[moe]([m5C])p.[moe]([m5C])[sp].[moe](A)}$$$$ (last 3' nucleoside missing)	0.75
RNA1{[moe]([m5C])[sp].[moe](T)[sp].[moe]([m5C])p.[moe](T)p.[moe](A)p.[moe](T)p.[moe](G)p.d(T)[sp].d(T)[sp].d(T)[sp].d(T)[sp].d([m5C])[sp].d([m5C])[sp].d(A)[sp].d(G)[sp].d(T)[sp].d(G)[sp].[moe]([m5C])p.[moe]([m5C])}$$$$ (last 3' nucleoside missing)	6
RNA1{[moe](G)[sp].[moe](G)p.[moe](A)p.[moe](A)p.[moe](T)[sp].d(G)[sp].d([m5C])[sp].d([m5C])[sp].d(A)[sp].d([m5C])[sp].d(A)[sp].d(T)[sp].d(A)[sp].d(T)[sp].d(A)[sp].[moe](G)p.[moe](G)p.[moe](G)[sp].[moe](T)}$$$$ (last 3' nucleoside missing)	4
RNA1{[moe]([m5C])[sp].[moe]([m5C])p.[moe](A)p.[moe](G)p.[moe](A)[sp].d(G)[sp].d(G)[sp].d(T)[sp].d(T)[sp].d([m5C])[sp].d(A)[sp].d(G)[sp].d(T)[sp].d(G)[sp].d(T)[sp].[moe](T)p.[moe](G)p.[moe](T)[sp].[moe](G)}$$$$ (last 3' nucleoside missing)	6.25
RNA1{[moe]([m5C])[sp].[moe](T)p.[moe]([m5C])p.[moe](T)p.[moe](A)[sp].d(T)[sp].d(G)[sp].d(T)[sp].d(T)[sp].d(T)[sp].d(T)[sp].d([m5C])[sp].d([m5C])[sp].[moe](A)p.[moe](G)p.[moe](T)[sp].[moe](G)}$$$$ (last 3' nucleoside missing)	0.75
RNA1{[moe](A)[sp].[moe](G)p.[moe]([m5C])p.[moe](A)p.[moe]([m5C])[sp].d(A)[sp].d(G)[sp].d(G)[sp].d([m5C])[sp].d(T)[sp].d(A)[sp].d(T)[sp].d([m5C])[sp].d(T)[sp].d(T)[sp].[moe](T)p.[moe]([m5C])p.[moe](T)[sp].[moe](A)}$$$$ (last 3' nucleoside missing)	5
RNA1{[moe](G)[sp].[moe]([m5C])p.[moe](T)p.[moe](T)p.[moe](A)p.d([m5C])[sp].d(T)[sp].d([m5C])[sp].d(G)[sp].d(G)[sp].d([m5C])[sp].d(T)[sp].d(T)[sp].d(G)[sp].[moe](T)[sp].[moe](T)p.[moe]([m5C])p.[moe]([m5C])}$$$$ (last 3' nucleoside missing)	4.5
RNA1{[moe](A)[sp].[moe](G)p.[moe](G)p.[moe](G)p.[moe]([m5C])[sp].d(A)[sp].d(T)[sp].d(T)[sp].d(A)[sp].d(G)[sp].d(T)[sp].d(A)[sp].d(T)[sp].d(A)[sp].d([m5C])[sp].[moe](T)p.[moe](G)p.[moe](A)[sp].[moe](G)}$$$$ (last 3' nucleoside missing)	2.75
RNA1{[moe](A)[sp].[moe](A)p.[moe](G)p.[moe]([m5C])p.[moe]([m5C])[sp].d(T)[sp].d(T)[sp].d(T)[sp].d([m5C])[sp].d(A)[sp].d(T)[sp].d(A)[sp].d(T)[sp].d(A)[sp].d(T)[sp].[moe](G)p.[moe](T)p.[moe](T)[sp].[moe](A)}$$$$ (last 3' nucleoside missing)	0
RNA1{[moe](G)[sp].[moe]([m5C])p.[moe](A)p.[moe]([m5C])p.[moe](A)p.[moe]([m5C])p.d(T)[sp].d(G)[sp].d(A)[sp].d([m5C])[sp].d([m5C])[sp].d(A)[sp].d(T)[sp].d(T)[sp].d(T)[sp].d(T)[sp].[moe](T)p.[moe](T)[sp].[moe](A)}$$$$ (last 3' nucleoside missing)	0
RNA1{[moe](T)[sp].[moe](G)p.[moe](G)p.[moe](T)p.[moe](T)[sp].d(A)[sp].d(G)[sp].d([m5C])[sp].d(T)[sp].d(T)[sp].d(T)[sp].d(T)[sp].d(T)[sp].d(T)[sp].d(T)[sp].[moe]([m5C])p.[moe](A)p.[moe]([m5C])[sp].[moe](T)}$$$$ (last 3' nucleoside missing)	6.25
